[ ]: non-standard residue; d: D form.
Columns and labels:
[1] = system: breast and pancreatic carcinoma; details: cited from earlier work
[2] = in vivo; cited from earlier work
glioma cell = details: cited from earlier work
primary brain tumors = details: via ERK dependent pathways; cited from earlier work
HIV = details: cited from earlier work
SW1008 astrocytoma cells = assay: SDF-1 induced ERK phosphorylation, Western blot, SW1008 cells; type: cell-based, human; details: DLG pretreatment 30 min
Method: (§1) Western blot analysis. Control and treated cells were lysed in RIPA buffer supplemented with protease and phosphatase inhibitor cocktail (Sigma-Aldrich, St. Louis, Mo.) and protein concentrations of cell lysates were determined by Bradford assay. Protein lysates (30 μg) were diluted with sample buffer and separated on 4-20% Tris HCl SDS-polyacrylamide gels (Biorad, Hercules, Calif.) and electrophoretically transferred to nitrocellulose membranes (Schleicher & Schuell). The blots were then incubated with rabbit anti-phospho-P42 and pERK (Cell Signaling, Beverly, Mass.). Immune complexes were visualized by incubation with either an anti-rabbit or an anti-mouse HRP-conjugated secondary antibody (Amersham, Piscataway, N.J.). The immunoreactive band was visualized by enhanced chemiluminescence (Perkin-Elmer).

Primary human T cells = assay: Transwell chemotaxis assay, SDF-1 induced migration of primary human T cells; type: cell-based; details: SDF-1 100 ng/ml, 2 h
Method: (§2) Chemotaxis Assay. Fluorescence-based Transwell chemotaxis assays were performed to assess cell migration. Primary human T cells, CEMR5 and HH cells were labeled with 10 μg/ml Hoechst 33342 (Molecular Probes) in cRPMI for 30 min at 37° C. The cells were then resuspended in RPMI with 1% FBS to a concentration of 1×10^7/ml and 100 ul of Hoechst labeled cells (10^6 cells) were added into the top chamber of the transwells. Cells were treated with DLG in the upper chamber and RPMI (0.6 ml) containing 1% FBS was added to the bottom wells of the 24-well plate with 100 ng/ml of SDF-1α. Transwell chambers with 5 μm pore filters (Corning CoStar, Acton, Mass.) were then placed into the wells. Cells (1×10^6 in 100 μl) were then added to the chambers. After 2 h, the migrated cells in the bottom wells were transferred to triplicate wells of a 96-well plate in 150 μl volumes. Hoechst fluorescence was measured on a Fluoroskan Ascent FL fluorescence plate reader (Thermo Labsystems, Franklin, Mass.) at λex=355 nm, and λem=460 nm. Results are expressed as migration index calculated by subtracting the fluorescence intensity of media alone and comparing the values to the fluorescence intensity (relative number) of cells migrated into the bottom chamber in media alone, which is normalized to a value of 1. Fluorescence values were within the linear range of a standard dilution curve.

[3] = cited from earlier work
CCR7 = molecular target: T1, CCR7 (Homo sapiens, UniProt P32248); assay: MIP-3β induced calcium release in human T cells; type: cell-based
T1 construct: MIP-3β induced calcium release (A) and sphingosine 1 phosphate (B) is not affected by DLG treatment in human T cells; endogenous in cells; host or cells: human T cells
T1 sequence (P32248 25-378): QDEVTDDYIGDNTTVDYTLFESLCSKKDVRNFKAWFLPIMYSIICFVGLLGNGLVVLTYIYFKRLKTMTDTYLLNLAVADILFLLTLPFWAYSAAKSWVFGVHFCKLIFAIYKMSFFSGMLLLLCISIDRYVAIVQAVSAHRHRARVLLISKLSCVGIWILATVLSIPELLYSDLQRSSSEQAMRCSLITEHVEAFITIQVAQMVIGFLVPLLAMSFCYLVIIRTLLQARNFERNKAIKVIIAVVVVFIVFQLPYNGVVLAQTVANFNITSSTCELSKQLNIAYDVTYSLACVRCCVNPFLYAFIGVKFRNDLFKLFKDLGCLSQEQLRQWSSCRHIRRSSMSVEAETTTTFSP

EDG receptor = assay: Sphingosine 1 phosphate induced calcium release in human T cells; type: cell-based
HIV1 (CXCR4, S1 strain) = assay: HIV-1 infectivity of CEM-GFP indicator cells (GFP fluorescence); type: cell-based; details: 1 ug/ml pretreatment 30 min, 90 min viral incubation
Method: Neomycin-resistant indicator CEM-GFP cells were used to monitor the infections with HIV1 (CXCR4, S1 strain). Viral entry into CEM cells via CXCR4 results in generation of green fluorescent protein signal. CEM cells (1 million/ml) were pretreated with DLG (1 ug/ml) and SDF-1 (1 ug/ml) for 30 min followed by 90 min viral incubation.

CCR5 [4] = molecular target: T2, CCR5 (Homo sapiens, UniProt P51681); assay: MIP-1β induced calcium release in CEM-R5 cells (Fura-2AM); type: cell-based; parameters: ATCC; host or cells: CEM-R5 cells; details: CEMR5 cells, MIP-1β 100 ng/ml
T2 sequence (P51681 whole entry): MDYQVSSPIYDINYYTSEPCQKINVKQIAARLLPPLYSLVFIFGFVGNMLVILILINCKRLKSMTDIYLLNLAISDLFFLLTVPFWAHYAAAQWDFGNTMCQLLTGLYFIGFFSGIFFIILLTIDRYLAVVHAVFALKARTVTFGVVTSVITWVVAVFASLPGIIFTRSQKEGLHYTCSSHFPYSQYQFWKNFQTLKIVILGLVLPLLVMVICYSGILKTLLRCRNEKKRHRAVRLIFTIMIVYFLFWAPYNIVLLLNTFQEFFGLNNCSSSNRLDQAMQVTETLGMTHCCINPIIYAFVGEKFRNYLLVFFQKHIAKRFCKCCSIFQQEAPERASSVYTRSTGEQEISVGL

U118 astrocytoma cells = assay: SDF-1 induced ERK phosphorylation, Western blot, U118 cells; type: cell-based, human; details: DLG pretreatment 30 min
Method: as §1

[5] = system: CEMR5 human T cell lymphoma cell; assay: Transwell chemotaxis assay, SDF-1 induced migration of CEMR5 cells; type: cell-based; details: SDF-1 100 ng/ml
Method: as §2

CXCR4 [6] = molecular target: T3, CXCR4 (Homo sapiens, UniProt P61073); assay: SDF-1 induced intracellular calcium mobilization (Fura-2AM) in primary human T cells; type: cell-based; parameters: endogenous in cells; host or cells: primary human T cells purified from donor PBMCs
T3 sequence (P61073 whole entry): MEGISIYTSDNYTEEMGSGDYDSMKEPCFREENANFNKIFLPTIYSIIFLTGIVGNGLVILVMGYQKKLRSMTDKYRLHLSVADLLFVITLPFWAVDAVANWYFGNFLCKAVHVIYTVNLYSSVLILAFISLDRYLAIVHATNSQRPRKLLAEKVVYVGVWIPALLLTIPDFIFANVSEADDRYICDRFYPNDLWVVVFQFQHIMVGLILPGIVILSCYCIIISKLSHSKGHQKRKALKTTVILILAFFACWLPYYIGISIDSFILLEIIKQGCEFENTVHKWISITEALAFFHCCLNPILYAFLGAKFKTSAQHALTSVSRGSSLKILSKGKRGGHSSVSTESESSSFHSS
Method: Intracellular calcium mobilization. Measurement of intracellular calcium release in response to ghrelin and SDF-1 was performed as described previously (Dixit et al. J. Clin. Invest. 114, 57-66 (2004)). Cells were incubated in PBS containing […] Fura-2 acetoxymethyl ester (Molecular Probes) for 30 minutes at room temperature. The cells were subsequently washed and then resuspended at 1×10^6/ml in PBS. A total of 2 ml of the cell suspension was placed in a continuously stirring cuvette at room temperature in an LS50B spectrophotometer (Perkin-Elmer, Wellesley, Mass., USA). Labeled T cells were treated with SDF-1 (100 ng/ml) and along with DLG (Sigma-Aldrich) at various concentrations. Fluorescence was monitored at λex1=340 nm, λex2=380 nm, and λcm=510 nm. The data are presented as the relative ratio of fluorescence excited at 340 and 380 nm.

[7] = obese mice, cited from earlier work
CXCR4 [8] = molecular target: T3, CXCR4; assay: flow cytometry, whole cell ligand binding on T-SUP1 cells; competitor biotinylated SDF-1 + avidin-FITC; DLG 10^-2 M for 15 minutes by the legend of FIG. 5
CCR5 [9] = molecular target: T2, CCR5; assay: flow cytometry, whole cell ligand binding on T-SUP1 cells; competitor biotinylated MIP-1β + avidin-FITC; DLG 10^-2 M for 15 minutes by the legend of FIG. 5

Molecule: c1cc(CN2CCCNCCNCCCNCC2)ccc1CN1CCCNCCNCCCNCC1 [AMD3100]
- metastasis of breast and pancreatic carcinoma [1]: blocks
- allergy and collagen induced arthritis [2]: decreases allergy and collagen induced arthritis
- glioma cell invasion (glioma cell): blocks glioma cell invasion
- intracranial growth of primary brain tumors (primary brain tumors): effectively inhibit intracranial growth of primary brain tumors
- CXCR4 mediated HIV viral entry (HIV): successfully utilized to block CXCR4 mediated HIV viral entry

Molecule: H-His-D-Trp-D-Lys-Trp-D-Phe-Lys-NH2 (H-H[dW][dK]W[dF]K-NH2; SMILES NCCCC[C@H](NC(=O)[C@@H](Cc1ccccc1)NC(=O)[C@H](Cc1c[nH]c2ccccc12)NC(=O)[C@@H](CCCCN)NC(=O)[C@@H](Cc1c[nH]c2ccccc12)NC(=O)[C@@H](N)Cc1c[nH]cn1)C(N)=O) [DLG, GHS-R antagonist peptide, obtained from Sigma-Aldrich]
- effect on SDF-1 induced ERK/P42 phosphorylation (SW1008 astrocytoma cells): abrogated the SDF-1 induced signaling
- inhibition of SDF-1 induced T cell migration (Primary human T cells): marked dose dependent inhibition
- food intake ([3]; fed state when circulating ghrelin levels are low): does not affect food intake in the fed state
- adverse side effects ([3]; in vivo): without any adverse side effects
- effect on MIP-3β mediated calcium flux (CCR7): did not affect
- effect on sphingosine 1 phosphate mediated calcium flux (EDG receptor): did not affect
- HIV infectivity (GFP fluorescence intensity) compared to untreated cells (HIV1 (CXCR4, S1 strain)): substantial reduction in HIV infectivity
- inhibition of calcium release post MIP-1β-CCR5 interaction (CCR5 [4]): dose dependent inhibition of calcium release
- effect on SDF-1 induced ERK/P42 phosphorylation (U118 astrocytoma cells): abrogated the SDF-1 induced signaling
- inhibition of SDF-1 induced migration [5]: inhibited the migration
- inhibition of SDF-1-induced calcium flux (CXCR4 [6]; primary human T cells, SDF-1 100 ng/ml, DLG at various concentrations): markedly inhibited in a dose dependent fashion
- calcium flux by the substance alone (CXCR4 [6]; unstimulated primary human T cells): did not flux calcium by itself
- body weight ([7]; repeated administration): reduce body weight in obese mice
- glycaemic control and insulin resistance ([7]; repeated administration): improve their glycaemic control and insulin resistance
- muscle mass [7]: without affecting the muscle mass
- size of abdominal fat pads [7]: reduced the size of abdominal fat pads

B1: D-[Lys3]GHRP-6 (H-His-D-Trp-D-Lys-Trp-D-Phe-Lys-NH2) (peptide)
peptide: H-H[dW][dK]W[dF]K-NH2
SMILES: NCCCC[C@H](NC(=O)[C@@H](Cc1ccccc1)NC(=O)[C@H](Cc1c[nH]c2ccccc12)NC(=O)[C@@H](CCCCN)NC(=O)[C@@H](Cc1c[nH]c2ccccc12)NC(=O)[C@@H](N)Cc1c[nH]cn1)C(N)=O
- percent reduction of maximal binding (CXCR4 [8]): 50 to 60%
- percent reduction of maximal binding (CCR5 [9]): 50 to 60%

Reference: patent US20110143992A1, “Methods and Compositions Related to GHS-R Antagonists” (priority 2006, published 2011)
